Literature values, collected in patent US6589787B2, “T-type calcium channel variants; compositions thereof; and uses” (Syntex (U.S.A.) LLC, priority 1998, dated 2003).

Tested on: T-type Ca^2+ current
Settings: freshly dissected neurons from dorsal root ganglia (DRG neurons) of adult rats

CCC1(C)CC(=O)NC1=O (stereo not shown) [ethosuximide]
block of T-type Ca^2+ current: fully block
